From US6602673B2, “Huntingtin-related therapeutics and bioassay” (University of Massachusetts, priority 1996, dated 2003)

System: human fibroblasts
Test: Brefeldin A (BFA) treatment of human fibroblasts, immunofluorescence localization of huntingtin, 58 kDa Golgi protein and tubulin
Assay type: cell-based
Method: For the studies described herein, fibroblasts from passage number 10-15 were plated onto coverslips and grown in culture for 24-48 hours. Cells were rinsed briefly with phosphate buffered saline (PBS) and fixed for 10 minutes with 4% paraformaldehyde in PBS at room temperature. After fixation, cells were rinsed multiple times and stored at 4° C. in PBS. Huntingtin was immunolocalized in human fibroblasts using an affinity purified anti-peptide antibody, Ab 2527, at 2-4 μg/ml. In selected experiments, cells were also labeled with a monoclonal antiserum that recognizes clathrin heavy chain (2 μg/ml, Biodesign Int., Kennebunk, Me.), the Golgi-associated 58 kDa protein (ascites serum diluted 1:100, Sigma Chemical Co., St. Louis, Mo.), or human transferrin receptor (5 μg/ml, Zymed Laboratories Inc., San Francisco, Calif.). Cells were made permeable by a 30 minute incubation in 0.1% Triton® X-100 in PBS, rinsed several times, and blocked with 5% normal goat serum for 60 minutes prior to incubation in primary antibodies. All incubations, whether performed with a single type of antibody or two types of antibodies, were carried out overnight at 4° C. and were followed by multiple rinses in PBS. Secondary antibodies were used at a 1:400 dilution. A pooled mixture of either Texas Red goat anti-mouse IgG (Molecular Probes Inc., Eugene, Oreg.) and Bodipy FL anti-rabbit IgG (Molecular Probes Inc, Eugene, Oreg.) or Texas Red goat anti-mouse IgM (Vector Laboratories, Burlingame, Calif.) and Bodipy FL anti-rabbit IgG were used. For immunoperoxidase labeling, cells were rinsed several times after the primary incubation and an avidin/biotin blocking procedure was performed prior to the incubation in secondary antibody. A Vectastain ABC™ kit (Vector Laboratories, Burlingame, Calif.) was employed to localize the primary antibody, and diaminobenzidine was used as a substrate for visualization of the peroxidase reaction product. Sections were examined using conventional immunofluorescence microscopy and a Biorad 1024 laser confocal microscope. Image processing was performed with Adobe Photoshop™.
To further establish the association of huntingtin with Golgi membranes, cells were treated with the fungal metabolite Brefeldin A (BFA).
Cells were briefly rinsed with Hank's balanced salt solution (HBSS) and then incubated in complete medium containing BFA (5 μg/ml; Gibco/BRL). The cells were incubated at either 18° C. or 37° C. for 10 minutes, then rinsed briefly with 50 mM phosphate buffered saline (PBS; pH 7.4) and fixed immediately for 10 minutes with 4% paraformaldehyde in PBS at room temperature.

C[C@H]1CCC/C=C/[C@@H]2C[C@H](O)C[C@H]2[C@H](O)/C=C/C(=O)O1 [BFA, Brefeldin A]
Distribution of tubulin in BFA-treated cells (compared to untreated cells): unchanged
Huntingtin localization after mild BFA treatment (mild BFA treatment, 5 μg for 10 min at 18° C., human fibroblasts): fragmented and dispersed
Huntingtin localization after more severe BFA treatment (more severe BFA treatment, human fibroblasts): obliterated
Localization of huntingtin and the 58 kDa protein in the presence of bfa (figure legend) (normal fibroblasts, +bfa, FIGS. 3C and 3D): more widely dispersed from the nucleus and the Golgi-membrane architecture is disrupted
